Test results as given in PMC7217877, “N-AS-triggered SPMs are direct regulators of microglia in a model of Alzheimer’s disease” (Nature Communications, 2020).
“And” between values parts separate entries of the source, which are not always exact repeats. Identical values can stand only once.

How the values were obtained:
[1] = molecular target: T1, COX2 of WT and APP/PS1 mice (Mus musculus, UniProt Q05769); assay: in vivo COX2 acetylation in microglia and neuron after oral [14C] N-AS (Supplementary Fig 4d)
T1 construct: from tissue; host or cells: microglia and neurons isolated from brain of 9-months-old WT and APP/PS1 mice
T1 sequence (Q05769 18-604): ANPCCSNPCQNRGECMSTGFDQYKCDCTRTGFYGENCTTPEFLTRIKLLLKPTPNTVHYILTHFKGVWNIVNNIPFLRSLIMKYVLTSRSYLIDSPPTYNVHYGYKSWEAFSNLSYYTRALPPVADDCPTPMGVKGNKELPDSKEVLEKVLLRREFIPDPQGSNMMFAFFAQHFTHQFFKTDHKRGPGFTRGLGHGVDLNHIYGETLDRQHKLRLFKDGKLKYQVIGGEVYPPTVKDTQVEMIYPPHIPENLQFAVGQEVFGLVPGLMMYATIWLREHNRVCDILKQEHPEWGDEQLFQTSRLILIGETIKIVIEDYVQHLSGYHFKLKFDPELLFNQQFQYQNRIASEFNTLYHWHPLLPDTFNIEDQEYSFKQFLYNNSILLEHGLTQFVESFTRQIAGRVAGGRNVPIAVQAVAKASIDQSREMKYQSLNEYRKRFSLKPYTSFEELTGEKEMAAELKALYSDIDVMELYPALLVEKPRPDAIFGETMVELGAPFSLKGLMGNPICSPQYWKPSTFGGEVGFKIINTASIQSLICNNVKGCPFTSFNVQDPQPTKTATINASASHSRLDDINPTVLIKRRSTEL
Procedure: Acetylation assays were performed according to previously described procedures with minor modifications. […] To confirm the N-AS-mediated COX2 acetylation, 10 μg COX2 (WT or mutants) was used incubated with [^14C] N-AS (2 μCi, ARC UK Ltd, ARC-1024) at 37 °C for 2 h. [^14C] aspirin (2 μCi, ARC UK Ltd, ARC-0473) was conducted as the positive control. The reactions were terminated by placing the reaction tubes in ice for 5 min. To evaluate in vivo neuronal and microglial COX2 acetylation, 10 μCi [^14C] N-AS was orally administrated to 9-months-old WT and APP/PS1 mice. After 1 h, neuron and microglia were isolated and sonicated in culture media. To immunoprecipitate acetylated COX2, the sample was incubated with COX2 antibody (Abcam, ab15191) at 4 °C for 24 h and precipitated by adding 50 μl of protein-A sepharose (GE Healthcare). Acetylated COX2 proteins bound to the beads were analyzed using a Tri-Carb 3110TR liquid scintillation counter (Perkin-Elmer).

neuron = assay: immunofluorescence of ac-S565 and COX2 in primary cells; assay type: cell-based, C57BL/6 mice; conditions: Ab 10mM, replicates
Procedure: To confirm the generation and roles of N-AS in neurons, cells from E18 C57BL/6 mice were prepared as previously described. Cortices were dissected and then dissociated followed by incubation in papain (Worthington) at 37 °C for 15 min. Neurons were plated on poly-L-lysine-coated coverslips with neuronal culture medium, serum-free Neurobasal medium (Gibco) containing 2% B27 supplements (Gibco), 1 mM Glutamax supplement (Gibco), and 100 U ml^−1 streptomycin/ 100 U ml^−1 penicillin (Gibco) at 37 °C in a humidified atmosphere of 5% CO2. […] Primary astrocyte cultures were prepared from C57BL/6 mice as described previously. In brief, after removal of the meninges, postnatal day 7 (P7) mouse brain tissues were minced and incubated in a rocking water bath at 37 °C for 30 min in the presence of 0.25% trypsin-EDTA (Sigma-Aldrich). […] The human microglia treated with Aβ 1–42 and/or zileuton was incubated with N-AS (2.5 μM, 2 h, Sigma-Aldrich, 01912), and were analyzed for the generation and roles of N-AS.
Thioflavin S (Sigma-Aldrich) staining was carried out according to previously described procedures. […] The sections were analyzed with a laser-scanning confocal microscope (FV3000; Olympus) or with a BX51 microscope (Olympus). MetaMorph software (Molecular Devices) was used to quantification. Three-dimensional reconstruction of microglia was recorded and analyzed using IMARIS software (Bitplane)[11]. […]

in vivo COX2 acetylation after oral [14C] N-AS (sFig 4d) ([1]; Microglia, WT mice (set to 100))	in vivo COX2 acetylation after oral [14C] N-AS (sFig 4d) ([1]; Neuron, WT mice (set to 100))	Molecule	in vivo COX2 acetylation after oral [14C] N-AS (sFig 4d) ([1]; Microglia, APP/PS1 mice, relative to WT = 100, listed as [14C] N-AS)	in vivo COX2 acetylation after oral [14C] N-AS (sFig 4d) ([1]; Neuron, APP/PS1 mice, relative to WT = 100, listed as [14C] N-AS)	[14C] radioreactivity of COX2 from microglia ([1]; oral [14C] N-AS, APP/PS1 vs WT microglia)	[14C] radioreactivity of COX2 from neurons ([1]; oral [14C] N-AS, APP/PS1 vs WT neurons)	ac-S565 with COX2, immunofluorescence quantification (Fig 3c) (neuron)
100	100	CCCCCCCCCCCCC/C=C/[C@@H](O)[C@H](CO)NC(C)=O [N-AS, N-((2S,3R,E)-1,3-Dihydroxyoctadec-4-en-2-yl)acetamide]	223.529 and 255.556 and 247.368 and 238.095 and 191.304 and 233.333	104 and 95.8333 and 96.1539 and 114.286 and 112.5	more avidly bound to and acetylated COX2 of APP/PS1 microglia	no significant differences were observed in neurons	
		Ab: Aβ 1–42 (Invitrogen, 03112) used to induce an AD environment in cells					0.191 and 0.165 and 0.09731 and 0.2737 and 0.2437 and 0.2571
